Values after ≈ are worked out from the molar mass of the structure shown.
Tests used:
Format in all cases: cell-based
[1] = test system: SMMC-7721 (human liver cancer cells); assay: Inhibition of proliferation of tumor cell lines (MTT), SMMC-7721; details: Homo sapiens, SMMC-7721, 72 h, read-out: IC50 value of compound for inhibition of proliferation of tumor cell lines, SMMC-7721
Procedure: (§1) In this example, the inhibitory activity of compounds of the present invention against proliferation of seven human tumor cell lines and mouse B16-F10 melanoma cells was tested in vitro, and the IC50 value (50% inhibitory concentration) of compounds against each tumor cell line was calculated.
(§2) The seven human tumor cell lines are: MCF-7 (human breast cancer cells), LOVO (human colon cancer cells), A549 (human lung cancer cells), BGC-823 (human gastric cancer cells), SMMC-7721 (human liver cancer cells), K562 (human leukemia cells), and HeLa (human cervical cancer cells).
(§3) IC50 values of the compounds for A549, BGC-823, LOVO, MCF-7, SMMC-7721, HeLa, and B16-F10 cells were tested. The above cells were routinely cultured in 1640 nutrient solution containing 10% calf serum, with passage for 1 time every 2 days, and the cells in logarithmic growth phase were taken for experiments. After the A549, BGC-823, LOVO, MCF-7, SMMC-7721, HeLa and B16-F10 cells in logarithmic growth phase were subjected to 0.25% trypsin digestion, they were blown into a single cell suspension, and then the cell concentration was adjusted to about 1×10^5·mL^−1 using RPMI 1640 solution containing 10% calf serum. The cells were seeded in a 96-well culture plate at 100 μL per well, and cultured for 24 hours until the cells were attached. K562 cells were taken and centrifuged and diluted into 2×10^5·mL^−1 single cell suspension with RPMI 1640 solution containing 10% calf serum, and inoculated into a 96-well culture plate at 100 μL per well.
(§4) 100 μL of sample solution with different concentrations to be tested were added to the above 96-well plate, each concentration was added to 4 wells in parallel, and the cell control group was added with an equal volume of RPMI 1640 medium containing 10% calf serum to make a reaction volume of 200 μL. After incubating in an incubator at 37° C., 5% CO2 for 72 h, 10 μL of 5 mg·mL^−1 MTT solution was added to each well, and incubated at 37° C. for 4 h. The supernatant was carefully aspirated, 180 μL of DMSO was added to each well followed by shaking, and the absorbance (OD) value was measured at 570 nm on the microplate reader. The inhibition rate was calculated, and regression equation was established with the logarithmic value of the sample concentration and the inhibition rate (IR) to find the IC50 value of the compound against the cells to be tested. IR (%)=(1−OD value of the experimental group/OD value of the cell control group)×100%

[2] = test system: neutrophilic granulocytes; assay: Neutrophil oxidative burst (luminol chemiluminescence); details: Neutrophil, rat neutrophils, (Csample−Ccontrol)/Ccontrol×100%, read-out: Efficiency of compounds in stimulating neutrophil oxidative burst; for activation at 3 µg/mL: 3 μg/mL
Procedure: This example investigated the effect of compound on neutrophil oxidative burst and calculated the efficiency of each compound in stimulating neutrophil oxidative burst.
Blood was taken from the abdominal aorta of rat. The neutrophilic granulocytes were isolated by the operational procedure of the rat peripheral blood neutrophil isolation kit. The neutrophilic granulocytes were re-suspended by Hanks, and were plated in a 96-well white plate at 1×10^5 cells/well, 80 μL/well; 1 mM of Luminol was added at 10 μL/well; 10 μL of the sample was added to each well, and the degree of oxidative burst was evaluated by chemiluminescence. Calculation formula of Efficiency: Efficiency (%)=(Csample−Ccontrol)/Ccontrol×100%

[3] = test system: MCF-7 (human breast cancer cells); assay: Inhibition of proliferation of tumor cell lines (MTT), MCF-7; details: Homo sapiens, MCF7, MCF-7, 72 h, read-out: IC50 value of compound for inhibition of proliferation of tumor cell lines, MCF-7
Procedure: as §1, §2, §3, §4

[4] = test system: A549 (human lung cancer cells); assay: Inhibition of proliferation of tumor cell lines (MTT), A549; details: Homo sapiens, A549, 72 h, read-out: IC50 value of compound for inhibition of proliferation of tumor cell lines, A549
Procedure: as §1, §2, §3, §4

[5] = test system: K562 (human leukemia cells); assay: Inhibition of proliferation of tumor cell lines (MTT), K562; details: Homo sapiens, K562, 72 h, read-out: IC50 value of compound for inhibition of proliferation of tumor cell lines, K562
Procedure: as §1, §2, §3, §4

[6] = test system: BGC-823 (human gastric cancer cells); assay: Inhibition of proliferation of tumor cell lines (MTT), BGC-823; details: Homo sapiens, BGC-823, 72 h, read-out: IC50 value of compound for inhibition of proliferation of tumor cell lines, BGC-823
Procedure: as §1, §2, §3, §4

[7] = test system: release of IL-8 by human keratinocytes (HaCaT); assay: Release of IL-8 by human keratinocytes (HaCaT), IL-8 Elisa; details: Homo sapiens, HaCaT; 0.1 μg/mL; 24 h; (Csample−Ccontrol)/Ccontrol×100%; read-out: Efficiency of compound in stimulating the release of IL-8 by HaCaT cells
Procedure: This Example investigated the effect of compound on release of IL-8 by human keratinocytes (HaCaT) and calculated the efficiency of each compound in stimulating the release of IL-8 by human keratinocytes (HaCaT).
Hacat cells were cultured in MEM+10% FBS under the conditions of 37° C., 5% CO2, and when the cells reached 80-95% fusion, they were inoculated into a 96-well culture plate (1×10^4 cells/well) at 100 μL/well, and incubated for 18-24 h. The supernatant was discarded and the cells were incubated for 3-6 h in 1% FBS medium. Different concentrations of the sample solution of compound to be tested were added to each well, and the cell control group was added with an equal volume of 1% FBS medium at 10 μL/well, and incubated for 24 h. The supernatant was taken and tested according to the operation sequence of the IL-8 Elisa kit. Calculation formula of Efficiency: Efficiency (%)=(Csample−Ccontrol)/Ccontrol×100%

[8] = test system: LOVO (human colon cancer cells); assay: Inhibition of proliferation of tumor cell lines (MTT), LOVO; details: Homo sapiens, 72 h, read-out: IC50 value of compound for inhibition of proliferation of tumor cell lines, LOVO
Procedure: as §1, §2, §3, §4

[9] = test system: HeLa (human cervical cancer cells); assay: Inhibition of proliferation of tumor cell lines (MTT), HeLa; details: Homo sapiens, 72 h, read-out: IC50 value of compound for inhibition of proliferation of tumor cell lines, HeLA
Procedure: as §1, §2, §3, §4

[10] = test system: mouse B16-F10 melanoma cells; assay: Inhibition of proliferation of tumor cell lines (MTT), B16-F10; details: Mus musculus, B16-F10, 72 h, read-out: IC50 value of compound for inhibition of proliferation of tumor cell lines, B16-F10
Procedure: as §1, §3, §4

SMILES | IC50 [1] | activation at 0.1 µg/mL ([2]; 0.1 μg/mL) | IC50 [3] | IC50 [4] | IC50 [5] | IC50 [6] | activation at 0.1 µg/mL [7] | IC50 [8] | activation at 3 µg/mL [2] | IC50 [9] | IC50 [10]
CCCCCCCCCCCC(=O)O[C@@]12C[C@@H](C)[C@]34C=C(C)[C@H](OC(=O)CCCCC)[C@@]3(O)[C@H](O)C(CO)=C[C@H](C4=O)[C@@H]1C2(C)C [3-O-hexanoyl-13-O-dodecanoyl-ingenol] | 16.1 µg/mL (≈ 25 µM) | 173% | 14 µg/mL (≈ 21.7 µM) | 18.5 µg/mL (≈ 28.7 µM) | < 0.2 µg/mL | 18.3 µg/mL (≈ 28.4 µM) | 66% | 16.5 µg/mL (≈ 25.6 µM) | – | – | –
CCCCCCCCCCCC(=O)O[C@@]12C[C@@H](C)[C@]34C=C(C)[C@H](O)[C@@]3(O)[C@H](O)C(COC(=O)C(C)C(C)C)=C[C@H](C4=O)[C@@H]1C2(C)C (some centres unmarked) [20-O-(2,3-dimethylbutyryl)-13-O-dodecanoyl-ingenol] | 10.7 µg/mL (≈ 16.6 µM) | – | 10.1 µg/mL (≈ 15.7 µM) | 8.89 µg/mL (≈ 13.8 µM) | 0.64 µg/mL (≈ 0.992 µM) | 11 µg/mL (≈ 17.1 µM) | – | 8.36 µg/mL (≈ 13 µM) | 64.5% | 14.5 µg/mL (≈ 22.5 µM) | 16.6 µg/mL (≈ 25.7 µM)
CCCCCCCCCC(=O)O[C@@]12C[C@@H](C)[C@]34C=C(C)[C@H](O)[C@@]3(O)[C@H](O)C(CO)=C[C@H](C4=O)[C@@H]1C2(C)C [Compound 1a, 13-O-decanoyl-ingenol] | 19.5 µg/mL (≈ 37.6 µM) | – | 13.8 µg/mL (≈ 26.6 µM) | 15.1 µg/mL (≈ 29.1 µM) | 0.7 µg/mL (≈ 1.35 µM) | 15 µg/mL (≈ 28.9 µM) | – | 9.77 µg/mL (≈ 18.8 µM) | 65.2% | 29.1 µg/mL (≈ 56.1 µM) | –
CCCCC/C=C/C=C/C(=O)O[C@@]12C[C@@H](C)[C@]34C=C(C)[C@H](O)[C@@]3(O)[C@H](O)C(CO)=C[C@H](C4=O)[C@@H]1C2(C)C [Compound 1b, 13-O-(2′E,4′E-decadienoyl)-ingenol] | 8.01 µg/mL (≈ 15.6 µM) | – | 11.8 µg/mL (≈ 22.9 µM) | 12.8 µg/mL (≈ 24.9 µM) | 8.97 µg/mL (≈ 17.4 µM) | 10.6 µg/mL (≈ 20.6 µM) | – | 12.9 µg/mL (≈ 25.1 µM) | – | – | –
CCCCCCCCCCCC(=O)O[C@@]12C[C@@H](C)[C@]34C=C(C)[C@H](O)[C@@]3(O)[C@H](O)C(CO)=C[C@H](C4=O)[C@@H]1C2(C)C [Compound 1c, 13-O-dodecanoyl-ingenol] | 6.49 µg/mL (≈ 11.9 µM) | – | 6.36 µg/mL (≈ 11.6 µM) | 11.1 µg/mL (≈ 20.3 µM) | 5.51 µg/mL (≈ 10.1 µM) | 6.19 µg/mL (≈ 11.3 µM) | – | 8.97 µg/mL (≈ 16.4 µM) | – | 15.1 µg/mL (≈ 27.6 µM) | –
CCCCCCCCCCCC(=O)O[C@@]12C[C@@H](C)[C@]34C=C(C)[C@H](O)[C@@]3(O)[C@H](O)C(C)=C[C@H](C4=O)[C@@H]1C2(C)C [Compound 1d, 20-deoxy-13-O-dodecanoyl-ingenol] | 31.5 µg/mL (≈ 59.4 µM) | – | 29.2 µg/mL (≈ 55 µM) | 26.8 µg/mL (≈ 50.5 µM) | 6.88 µg/mL (≈ 13 µM) | 15.4 µg/mL (≈ 29 µM) | – | 19.2 µg/mL (≈ 36.2 µM) | – | – | –
CC1=C[C@]23C(=O)[C@@H](C4OC4(C)[C@@H](O)[C@]2(O)[C@H]1O)[C@H]1C(C[C@H]3C)C1(C)C (some centres unmarked) [Compound 1e, 6,7-epoxy-20-deoxy-ingenol] | > 200 µg/mL | – | > 200 µg/mL | > 200 µg/mL | 5.52 µg/mL (≈ 15.8 µM) | > 200 µg/mL | – | > 200 µg/mL | – | – | –
